Results reported in patent US11560339B2, “Micronutrient foliar solutions” (KOCH AGRONOMIC SERVICES, LLC, priority 2019, dated 2023).

What was measured:
[1] = tested on: soybean plants; assay: Fe furrow application trial, iron uptake by ICP; format: in vivo; conditions: in furrow at transplanting, Fe rate 0.616 mg/pot, harvested at V3-stage
Experimental: (§1) Iron concentrations for the various plants were also determined and compared at the time of harvest, which was at least 3 days after the last treatment application. Again, each treatment had five replicates. All samples were washed in acetic acid and rinsed before being prepared for analysis by Inductively Coupled Plasma (“ICP”) Spectroscopy. Dried samples were combusted at 450° C. and extracted with concentrated hydrochloric acid, followed by analysis using ICP.
(§2) Alkaline soil having a pH of 7.9 was made by mixing air-dried Michigan topsoil (sieved) and fine sand (50:50, v/v). Next, 0.5% w/w calcium hydroxide was added to the soil-sand mixture and mixed well. Water was then added (15% v/v), and the pots were kept in that condition for a week to allow time for alkalinity fully develop. The pH was checked, and the soil was then added to 1-liter pots. There were thirty pots total, providing five replicates for each of the six treatments described below.
(§3) Soybean seeds (FS HISOY® Soybeans) were planted in trays filled with sieved topsoil. A base fertilizer comprising water solution made with urea (N), and monoammonium phosphate (P), and potassium sulfate (K) was applied to each tray before planting. The application rate was of 50-50-50 ppm NPK. Seedlings were irrigated with DI water. The trays were kept in a plant growth chamber so that each seedling received the same environmental exposure during growth.
(§4) Sixteen days after the seeds were planted as described in Part 2 of this Example, the seedlings were transplanted to the pots prepared in Part 1 of this Example. A fertilizer solution was prepared by mixing 16.67 g of Nova PeKacid® 0-60-20 (a phosphorus and potassium fertilizer, available from ICL Specialty Fertilizers), 13.33 g of SOP fertilizer, and 11.2 L of DI water. At the time of transplant, 56.5 mL of this fertilizer solution were added to each pot, and this same fertilizer solution application was repeated weekly until harvest.
(§5) A micronutrient fertilizer solution was prepared by mixing the compounds of Table 19 in 1 L of DI water. At the time of transplanting, 10 mL of this micronutrient fertilizer solution was added to each pot. This application was not repeated during the growth cycle.
(§6) Using a pipette, an iron test solution (comparative or Option 11 solution from Example 9—see Table 20) was applied about 1 cm below the soil surface, near each plant except for the negative control. This was the only iron test solution application.
(§7) All plants received about 100 mL of DI water every other day.
(§8) Iron uptake was determined using ICP as described in Example 9.

[2] = tested on: soybean plants; assay: Fe foliar application trial, biomass measurements; format: in vivo; conditions: foliar at V3 stage, Fe rate 0.616 mg/pot (Table 20), harvested after 1 week
Experimental: (§9) One week after application, root and shoot masses were determined by drying the above- and below-ground biomass for 12 hours at […], then weighing each plant to the third decimal in grams.
(§10) Shoot and root biomasses were also determined, following the procedure described in Example 7.
(§11) Example 11 was exactly repeated except that instead of treating the soil with an iron solution by pipetting the solution at the time of transplantation, the plants were treated foliarly at V3 stage of growth and harvested 1 week after treatment. The SPAD, biomass, and iron uptake results can be found in Tables 24-26, respectively, while the Fe(III) reductase gene expression results can be found in FIG. 14.

[3] = tested on: soybean plants; assay: Fe foliar application trial, SPAD measurements; format: in vivo; conditions: foliar at V3 stage, Fe rate 0.616 mg/pot (Table 20), harvested after 1 week
Experimental: (§12) The plants were analyzed for leaf chlorophyll concentrations using a Soil Plant Analysis Development (“SPAD”) chlorophyll meter (SPAD 502 Plus Chlorophyll Meter, from Spectrum Technologies, Inc.), which enables an in situ, nondestructive technique. That is, not sample processing was required, and the tests were carried out on live plants. Readings were taken immediately before the first foliar treatment and again at 72 hours after the second foliar treatment, and the % SPAD increase of each sample was determined.
Thirty-six days after transplantation, the plants were harvested. SPAD measurements were taken as described Example 9. Fully grown youngest trifoliate and second youngest trifoliate were selected for these SPAD measurements. A total of nine readings were taken per trifoliate (3 per leaf).
as §11

[4] = tested on: soybean plants; assay: Fe foliar application trial, iron uptake by ICP; format: in vivo; conditions: foliar at V3 stage, Fe rate 0.616 mg/pot (Table 20), harvested after 1 week
Experimental: as §1, §8, §11

[5] = tested on: soybean plants; assay: Fe furrow application trial, biomass measurements; format: in vivo; conditions: in furrow at transplanting, Fe rate 0.616 mg/pot, harvested at V3-stage
Experimental: as §9, §2, §3, §4, §5, §6, §7, §10

[6] = tested on: soybean plants; assay: Fe furrow application trial, SPAD measurements; format: in vivo; conditions: in furrow at transplanting, Fe rate 0.616 mg/pot, harvested at V3-stage
Experimental: as §12, §2, §3, §4, §5, §6, §7
Thirty-six days after transplantation, the plants were harvested. SPAD measurements were taken as described Example 9. […] A total of nine readings were taken per trifoliate (3 per leaf).

[7] = 75% by weight solution mixed with 25% by weight of a 50% phosphonate solution, room temperature, one week; FIG. 3
Experimental: The source of iron was iron(II) sulfate heptahydrate, the base utilized was Mg(OH)2, and the citric acid:malic acid ratio was 50:50. The ratio of metal:base:total acid was 4:4:3.
A comparative solution was prepared by mixing 75% of an iron sulfate solution with 25% of the same phosphonate, also under ambient conditions. The solutions were permitted to sit for one week to look for any unwanted precipitation (i.e., iron complexed with the phosphonate).

| SMILES | Average Fe uptake, root [1] [μg/plant] | Average Fe uptake, shoot [1] [μg/plant] | Root average weight/plant (dry biomass) [2] [g] | Shoot average weight/plant (dry biomass) [2] [g] | Average SPAD value, second youngest trifoliate (old) [3] | Average SPAD value, youngest trifoliate (young) [3] | Average Fe uptake, root [4] [μg/plant] | Average Fe uptake, shoot [4] [μg/plant] | Root average dry biomass [5] [g] | Shoot average dry biomass [5] [g] | Average SPAD value, second youngest trifoliate (old) [6] | Average SPAD value, youngest trifoliate (young) [6] | extent of coordination complexing of iron (unwanted precipitation with phosphonate) [7] |
| --- | --- | --- | --- | --- | --- | --- | --- | --- | --- | --- | --- | --- | --- |
| O=C([O-])CN(CCN(CC(=O)[O-])CC(=O)[O-])CC(=O)[O-].[Fe+3] [FeEDTA, iron chelated with EDTA] | 183.64 | 188.92 | 0.661 | 2.514 | 32.74 | 32.06 | 246.69 | 348.28 | 0.650 | 2.276 | 37.94 | 39.12 |  |
| O=S(=O)([O-])[O-].[Fe+2] [FeSO4, iron sulfate] | 172.17 | 116.20 | 0.601 | 2.199 | 29.84 | 33.64 | 273.02 | 217.88 | 0.540 | 1.992 | 30.74 | 32.98 | which was not the case |
